Values quoted from earlier work in patent publication US20050002974A1, “Itch-relieving cosmetic or dermatological preparation” (Beiersdorf AG, priority 2002, published 2005).

Experiments:
[1] = rubbed into the skin
[2] = used in aqueous solutions

Compound	feel on the skin [1]	local anesthetic properties [2]
CC1CCC(C(C)C)C(O)C1 (centres unmarked) [menthol, Menthol]	pleasant cooling feel	
polyethylene glycol (9) monododecyl ether [polidocanol]		strong local anesthetic properties
